Source: the NIST ThermoML archive (doi:10.1021/acs.jced.7b00494)

Conditions: 99.6 kPa, Liquid; for kinematic viscosity: Capillary tube (Ostwald / Ubbelohde) method; for mass density: Vibrating tube method

CNC(C)=O [N-methylacetamide]
Conditions	kinematic viscosity [m2/s]	mass density [kg/m3]
308.15 K	3.79e-06	945.85
313.15 K	3.35e-06	941.63
318.15 K	2.99e-06	937.44
323.15 K	2.68e-06	933.24
328.15 K	2.42e-06	929.07
